Literature values, collected in patent publication US20090170848A1, “THIAZOLONES FOR USE AS PI3 KINASE INHIBITORS” (SMITHKLINE BEECHAM CORPORATION, priority 2006, published 2009).
Where two headings read alike, the source gives them in different places.

Key:
CK2 protein kinase = CK2 protein kinase (Homo sapiens, UniProt P68400)
Sequence of CK2 protein kinase (P68400 whole entry): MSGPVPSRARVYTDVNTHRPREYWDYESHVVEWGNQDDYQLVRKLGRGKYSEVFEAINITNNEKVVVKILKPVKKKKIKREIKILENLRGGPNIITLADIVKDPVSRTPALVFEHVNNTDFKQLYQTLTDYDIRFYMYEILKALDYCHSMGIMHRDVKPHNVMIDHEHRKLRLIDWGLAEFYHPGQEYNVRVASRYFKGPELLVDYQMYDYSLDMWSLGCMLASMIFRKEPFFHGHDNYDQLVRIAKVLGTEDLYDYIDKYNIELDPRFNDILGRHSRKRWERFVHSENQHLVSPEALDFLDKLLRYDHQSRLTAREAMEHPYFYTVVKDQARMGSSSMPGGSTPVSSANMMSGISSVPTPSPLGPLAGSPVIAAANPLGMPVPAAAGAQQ

| SMILES | IC50 (Class I PI3-kinases; each of the four members of Class I PI3-kinases, read-out: IC50 values against each of the various Class I PI3-kinases) [µM] | IC50 (CK2 protein kinase) [µM] | IC50 (Class I PI3-kinases; read-out: IC50 values against each of these PI3-kinases) [µM] |
| --- | --- | --- | --- |
| COC[C@H]1OC(=O)c2coc3c2[C@@]1(C)C1=C(C3=O)[C@@H]2CCC(=O)[C@@]2(C)C[C@H]1OC(C)=O [wortmannin] | 0.001 to 0.01 |  |  |
| O=c1cc(N2CCOCC2)oc2c(-c3ccccc3)cccc12 [LY294002] |  | 5 to 10 | 15 to 20 |
